Experimental findings from patent US20230174484A1, “ANTAGONISTS OF GPR39 PROTEIN” (Oregon Health & Science University, priority 2020, published 2023) are described below.

In the test the target is T1, human GPR39 receptor (Homo sapiens, UniProt O43194).
T1 construct: PC3 Cells, Expressing the Endogenous Human GPR39 Receptor; endogenous in cells; host or cells: PC3 (human prostate adenocarcinoma) cells
T1 sequence (O43194 1-453): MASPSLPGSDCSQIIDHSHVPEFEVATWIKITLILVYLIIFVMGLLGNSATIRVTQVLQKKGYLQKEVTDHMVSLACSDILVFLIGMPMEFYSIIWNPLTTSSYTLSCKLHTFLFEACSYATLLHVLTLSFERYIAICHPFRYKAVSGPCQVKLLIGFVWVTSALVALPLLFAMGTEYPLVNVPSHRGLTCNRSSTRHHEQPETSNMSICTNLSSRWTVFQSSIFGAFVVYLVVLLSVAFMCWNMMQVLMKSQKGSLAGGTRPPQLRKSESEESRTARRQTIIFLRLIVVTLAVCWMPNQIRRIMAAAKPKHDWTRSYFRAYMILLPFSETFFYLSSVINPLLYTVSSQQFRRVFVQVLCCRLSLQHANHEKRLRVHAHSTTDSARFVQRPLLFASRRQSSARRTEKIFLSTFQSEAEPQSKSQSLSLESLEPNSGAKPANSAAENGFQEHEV
The experiment in a line: Measurement of intracellular calcium response in PC3 cells (FLIPR), antagonism of the C3 agonist response. Type of test: cell-based. The note with it: functional pKi (modified Cheng-Prusoff), inhibition of the C3 (TC-G 1008) response at EC90, 30 μM ZnCl2, read-out: fpKi activity. The essentials: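 Potency was reported as fpKi, converted by modified Cheng-Prusoff from four-parameter IC50 fits against an EC90 C3 agonist challenge. Calcium-6 FLIPR readings used PC3 cells naturally expressing human GPR39, in pH 7.4 HEPES buffer containing 30 μM final ZnCl2. Score bands: +/± <5.2, + 5.2–5.9, ++ 6.0–6.5, +++ 6.6–7.2, ++++ ≥7.3.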
A general note: Calcium flux is commonly read through the fluorescence of an indicator in the cells.

Bounds are passed on as bounds.

As to `CCCN1CCN(C(=O)c2ccc(NC(=O)C3CC3)cc2N2CC3CC3C2)CC1` (centres unmarked) [Example 12, N-(3-(3-azabicyclo[3.1.0]hexan-3-yl)-4-(4-propylpiperazine-1-carbonyl)phenyl)cyclopropanecarboxamide], the Ki lay in the range of 316 to 1000 nM.

For the molecule `CCCN1CCN(C(=O)c2ccc(NC(=O)C3CC3)cc2N2CCc3ccccc3C2)CC1` [Example 18, N-(3-(3,4-dihydroisoquinolin-2(1H)-yl)-4-(4-propylpiperazine-1-carbonyl)phenyl)cyclopropane carboxamide], the Ki was in the range of 316 to 1000 nM. In the case of `O=C(Nc1ccc(C(=O)N2CCN(c3ccccn3)CC2)c(N2CCCCCC2)c1)C1CC1` [Example 46, N-(3-(azepan-1-yl)-4-(4-(pyridin-2-yl)piperazine-1-carbonyl)phenyl) Cyclopropanecarboxamide], the Ki fell in the range of 316 to 1000 nM. `CCCN1CCN(C(=O)c2ccc(NC(=O)C3CC3)cc2N2CC3(CCOCC3)C2)CC1` [Example 4, N-(4-(4-propylpiperazine-1-carbonyl)-3-(7-oxa-2-azaspiro[3.5]nonan-2-yl)phenyl)cyclopropane carboxamide]: the Ki is 316 to 1000 nM. With `O=C(Nc1ccc(C(=O)N2CCS(=O)(=O)CC2)c(N2CCC(F)(F)C2)c1)C1CC1` [Example 184, N-[3-(3,3-difluoropyrrolidin-1-yl)-4-(1,1-dioxo-1,4-thiazinane-4-carbonyl)phenyl]cyclopropanecarboxamide], the Ki is 63.1 to 251 nM. Take `O=C(Nc1ccc(C(=O)N2CCN(Cc3cccc(F)c3)CC2)c(N2CCCCCC2)c1)C1CC1` [Example 26, N-(3-(azepan-1-yl)-4-(4-(3-fluorobenzyl)piperazine-1-carbonyl)phenyl) Cyclopropanecarboxamide]: the Ki lay in the range of 63.1 to 251 nM. As for `Cc1nnc(-c2ccc(C(=O)N3CCN(C)CC3c3ccccc3)c(N3CCC(C(F)(F)F)C3)c2)[nH]1` (single isomer, unassigned) [Example 177c, (2S, 3R) or (2R, 3S) or (2R, 3R) or (2S, 3S) (4-methyl-2-phenylpiperazin-1-yl)-[4-(5-methyl-4H-1,2,4-triazol-3-yl)-2-[3-(trifluoromethyl)pyrrolidin-1-yl]phenyl]methanone], the Ki was not above 50.1 nM. `CN1CCN(C(=O)c2ccc(NC(=O)C3CC3)nc2N2CCC(F)(F)C2)C(c2ccccc2)C1` (racemic) [Example 148c, N-[6-(3,3-difluoropyrrolidin-1-yl)-5-(4-methyl-2-phenylpiperazine-1-carbonyl)pyridin-2-yl]cyclopropanecarboxamide]: the Ki was 63.1 to 251 nM. As to `Cc1nnc(-c2ccc(C(=O)N3CCN(C)CC3c3ccccc3)c(N3CCCC3)c2)o1` (racemic) [Example 123, [4-(5-methyl-1,3,4-oxadiazol-2-yl)-2-pyrrolidin-1-ylphenyl]-(4-methyl-2-phenylpiperazin-1-yl)methanone], the Ki fell in the range of 1260 to 6310 nM.

On to `C[C@@H]1C[C@@H](C)CN(c2cc(NC(=O)C3CC3)ccc2-c2nnc(Sc3ccccc3)n2C)C1` (relative stereo) [Example 114a, N-[3-(3,5-dimethylpiperidin-1-yl)-4-(4-methyl-5-phenylsulfanyl-1,2,4-triazol-3-yl)phenyl]cyclopropanecarboxamide], for which the Ki lay in the range of 63.1 to 251 nM.

In the case of `O=C(Nc1ccc(C(=O)N2CCC(F)(F)CC2)c(N2CCCC2)c1)C1CC1` [Example 59, N-[4-(4,4-difluoropiperidine-1-carbonyl)-3-pyrrolidin-1-ylphenyl]cyclopropanecarboxamide], the Ki lay within 63.1 to 251 nM. To `CCCN1CCN(C(=O)c2ccc(NC(=O)C3CC3)cc2N2CCC(F)(F)CC2)CC1` [Example 7, N-(3-(4,4-difluoropiperidin-1-yl)-4-(4-propylpiperazine-1-carbonyl)phenyl) cyclopropanecarboxamide] belongs 1260 to 6310 nM. On to `CCCN1CCN(C(=O)c2ccc(NC(N)=O)cc2N2CCCCCC2)CC1` [Example 96, [3-(azepan-1-yl)-4-(4-propylpiperazine-1-carbonyl)phenyl]urea], for which the Ki is 1260 to 6310 nM. With `CC1CN(C)CCN1C(=O)c1ccc(NC(=O)C2CC2)cc1N1CCCCCC1` (centres unmarked) [Example 37, N-[3-(azepan-1-yl)-4-(2,4-dimethylpiperazine-1-carbonyl)phenyl]cyclopropanecarboxamide], the Ki was in the range of 316 to 1000 nM. As for `CC1CC(C)CN(c2cc(NC(=O)C3CC3)ccc2-c2nnc(Sc3ccccc3)n2C)C1` (centres unmarked) [Example 114c, N-[3-(3,5-dimethylpiperidin-1-yl)-4-(4-methyl-5-phenylsulfanyl-1,2,4-triazol-3-yl)phenyl]cyclopropanecarboxamide], the Ki is 63.1 to 251 nM. With `O=C(Nc1ccc(C(=O)N2CCC3(CC2)COC3)c(N2CCC(C(F)(F)F)C2)c1)C1CC1` (single isomer, unassigned) [Example 213a, N-[4-(2-oxa-7-azaspiro[3.5]nonane-7-carbonyl)-3-[3R or 3S-(trifluoromethyl)pyrrolidin-1yl]phenyl]cyclopropanecarboxamide], the Ki was not above 50.1 nM. As for `CN1CCN(C(=O)c2ccc(NC(=O)C3CC3)cc2N2CCCC2)C(c2ccccc2Cl)C1` (single isomer, unassigned) [Example 170b, (2R or 2S) N-[4-[2-(2-chlorophenyl)-4-methylpiperazine-1-carbonyl]-3-pyrrolidin-1-ylphenyl]cyclopropanecarboxamide], the Ki fell in the range of 316 to 1000 nM. Regarding `O=C(Nc1ccc(C(=O)N2CCN(Cc3ccon3)CC2)c(N2CCCCCC2)c1)C1CC1` [Example 22, N-(3-(azepan-1-yl)-4-(4-(isoxazol-3-ylmethyl)piperazine-1-carbonyl)phenyl) cyclopropanecarboxamide], the Ki is 63.1 to 251 nM. Regarding `CC(C)c1ccn(-c2cc(NC(=O)C3CC3)ccc2C(=O)N2CCS(=O)(=O)CC2)n1` [Example 179, N-[4-(1,1-dioxo-1,4-thiazinane-4-carbonyl)-3-(3-propan-2-ylpyrazol-1-yl)phenyl]cyclopropanecarboxamide], the Ki is not above 50.1 nM. As to `O=C(Nc1ccc(C(=O)N2CCS(=O)(=O)CC2)c(N2CCC(C(F)(F)F)C2)c1)C1CC1` (single isomer, unassigned) [Example 183b, N-[4-(1,1-dioxo-1,4-thiazinane-4-carbonyl)-3-[3R or 3S-(trifluoromethyl)pyrrolidin-1-yl]phenyl]cyclopropanecarboxamide], the Ki was 63.1 to 251 nM.

Regarding `O=C(Nc1ccc(C(=O)N2CCS(=O)(=O)CC2)c(N2CCC(C(F)(F)F)C2)c1)C1CC1` (single isomer, unassigned) [Example 183a, N-[4-(1,1-dioxo-1,4-thiazinane-4-carbonyl)-3-[3r or 3S-(trifluoromethyl)pyrrolidin-1-yl]phenyl]cyclopropanecarboxamide], the Ki was not above 50.1 nM. Turning to `CN1CCN(C(=O)c2ccc(NC(=O)C3CC3)cc2N2CCC(F)(F)C2)C(c2ccccc2)C1` (single isomer, unassigned) [Example 202a, N-[3-(3,3-difluoropyrrolidin-1-yl)-4-(2R or 2S)-4-methyl-2-phenylpiperazine-1-carbonyl)phenyl]cyclopropanecarboxamide], the Ki lay in the range of 1260 to 6310 nM. On to `CN1CCN(C(=O)c2ccc(NC(=O)C3CC3)cc2N2CCCC2)C(c2cccs2)C1` (racemic) [Example 86c, N-[4-(4-methyl-2-thiophen-2-ylpiperazine-1-carbonyl)-3-pyrrolidin-1-ylphenyl]cyclopropanecarboxamide], for which the Ki is not above 50.1 nM.
